Test results: patent publication US6159961A, “Cephem compounds” (Fujisawa Pharmaceutical Co., Ltd., priority 1995, dated 2000)
≈ marks a conversion by molar mass, not a printed value. Where two headings read alike, the source gives them in different places.

Assays:
E. faecalis = experiment: In vitro antibacterial activity (MIC), two-fold agar-plate dilution method, E. faecalis; format: cell-based; conditions: Enterococcus faecalis, HI-agar, 37° C., 20 hours, read-out: MIC (minimal inhibitory concentration)
Method: (§1) In vitro antibacterial activity were determined by the two-fold agar-plate dilution method as described below.
(§2) One loopful of an overnight culture of each test strain in Trypticase-soy broth (10^8 viable cells per ml) was streaked on heart infusion agar (HI-agar)containing graded concentrations of representative test compound, and the minimal inhibitory concentration (MIC) was expressed in terms of mg/ml after incubation at 37° C. for 20 hours.

[1] = Urinary excretion, bile excretion and plasma level after oral administration to rats; format: in vivo, Male JCL SD rats; conditions: rat, 20 mg/kg, fasted; for dose excreted at 24 h: 0-24 hours
Method: Male JCL SD atrain rats (age, 6 weeks) were used. Test compound was suspended in 0.5% methyl cellurose solution. The rats were atarved overnight before dosing with 20 mg /kg. Urine samples were collected at 0 to 6 and 6 to 24 hours after oral administration. Bile samples were collected at same interval as that of urine samples after a polyethylene cannula was inserted into the bile duct. Plasma samples were obtained by heart puncture at specified times after dosing. Concentrations of test compounds were measured by the disc-plate diffusion method using E. coli ATCC 39188 as test organism and nutrient agar (Difco) as the test medium. The diluents for standard curves were prepared with plasma from rat for determining the plasma levels, with 1/15 M phosphate buffer (pH7.0) for determining the urinary and biliary levels. The plate were incubated at 37° C. for 18 hours and the zone of inhibition were mesured and the recovery rate was calculated by comparing with the standard.

[2] = tested on: Methicillin susceptible S. aureus; experiment: In vitro antibacterial activity (MIC), two-fold agar-plate dilution method, methicillin susceptible S. aureus; format: cell-based; conditions: Staphylococcus aureus, HI-agar, 37° C., 20 hours, read-out: MIC (minimal inhibitory concentration)
Method: as §1, §2

[3] = bile, read-out: Biliary recovery in 24 hours
[4] = urine, read-out: Urinary recovery in 24 hours

| SMILES | MIC (E. faecalis) [µg/mL] | dose excreted at 24 h [1, 3] [%] | dose excreted at 24 h [1, 4] [%] | AUC ([1]; plasma) [ng·h/mL] | Cmax ([1]; plasma) [ng/mL] | MIC [2] [µg/mL] |
| --- | --- | --- | --- | --- | --- | --- |
| Nc1nc(/C(=N/O)C(=O)N[C@@H]2C(=O)N3C(C(=O)O)=C(SCc4cn[nH]c4)CS[C@H]23)c(Cl)s1 [(1)] | 2900 (≈ 5620 µM) | 29 | 39.7 | 52900 | 21800 | 250 (≈ 485 µM) |
| Nc1nc(/C(=N/O)C(=O)N[C@@H]2C(=O)N3C(C(=O)O)=C(SCc4cccnc4)CS[C@H]23)c(Cl)s1 [(2)] | 2100 (≈ 3980 µM) | 19.6 | 17 | – | – | 230 (≈ 436 µM) |
| Nc1nc(/C(=N/O)C(=O)N[C@@H]2C(=O)N3C(C(=O)O)=C(SCc4cnn[nH]4)CS[C@H]23)c(Cl)s1 [(3)] | 2100 (≈ 4060 µM) | 37.5 | 7.62 | – | – | 270 (≈ 522 µM) |
